Where a name gives a salt, the structure may show the parent alone.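 How tested: cells in 96-well plates exposed to compound for 48 hours at five concentrations. Abbreviation: GI50, concentration required for 50% inhibition of growth.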 Calls of active or inactive are those of the source. Cut-off read from the data, not from the text of the source: active = GI50 up to about 1.1 µM and inactive = higher.
Key:
Experiment in all cases: inhibition of tumour cell growth, NCI panel, 48 h
[1] = tested on: RXF 393
[2] = tested on: UO-31
[3] = tested on: HOP-62
[4] = tested on: MOLT-4
[5] = tested on: NCI-H23
[6] = tested on: K562
[7] = tested on: MDA-MB-231
[8] = tested on: IGROV-1
[9] = tested on: UACC-257
[10] = tested on: NCI/ADR-RES
[11] = tested on: MCF7
[12] = tested on: CCRF-CEM
[13] = tested on: SR
[14] = tested on: Hs-578T
[15] = tested on: RPMI-8226
[16] = tested on: KM12
[17] = tested on: OVCAR-8
[18] = tested on: LOX IMVI
[19] = tested on: TK-10
[20] = tested on: BT-549
[21] = tested on: 786-0
[22] = tested on: A498
[23] = tested on: M14
[24] = tested on: UACC-62
[25] = tested on: NCI-H522
[26] = tested on: MDA-N
[27] = tested on: SK-OV-3
[28] = tested on: ACHN
[29] = tested on: HT-29
[30] = tested on: MDA-MB-435
[31] = tested on: CAKI-1
[32] = tested on: OVCAR-5
[33] = tested on: PC-3
[34] = tested on: HCT-15
[35] = tested on: COLO 205
[36] = tested on: EKVX
[37] = tested on: SK-MEL-28
[38] = tested on: DU-145
[39] = tested on: OVCAR-3
[40] = tested on: OVCAR-4
[41] = tested on: SW-620
[42] = tested on: SK-MEL-2
[43] = tested on: NCI-H226
[44] = tested on: SN12C
[45] = tested on: A549
[46] = tested on: SK-MEL-5
[47] = tested on: T47D
[48] = tested on: HCT-116
[49] = tested on: HOP-92
[50] = tested on: Malme-3M
[51] = tested on: NCI-H460
[52] = tested on: SNB-75
[53] = tested on: SF-268
[54] = tested on: SNB-19
[55] = tested on: U-251
[56] = tested on: SF-539
[57] = tested on: SF-295
[58] = tested on: HCC 2998

For `CN1[C@@H]2C[C@@H](OC(=O)[C@H](CO)c3ccccc3)C[C@H]1[C@@H]1O[C@@H]12` [SCOPOLAMINE HYDROBROMIDE], the GI50 [1] was > 100 µM (inactive), the GI50 [2] was > 100 µM (inactive) and the GI50 [3] was > 100 µM (inactive). For the same molecule, the GI50 [4] was > 100 µM (inactive), the GI50 [5] was > 100 µM (inactive) and the GI50 [6] was > 100 µM (inactive). The GI50 [7] was > 100 µM (inactive), the GI50 [8] was > 100 µM (inactive) and the GI50 [9] was > 100 µM (inactive). For the same molecule, the GI50 [10] was > 100 µM (inactive), the GI50 [11] was > 100 µM (inactive) and the GI50 [12] was > 100 µM (inactive). For the same molecule, the GI50 [13] was > 100 µM (inactive), the GI50 [14] was > 100 µM (inactive) and the GI50 [15] was > 100 µM (inactive). For the same molecule, the GI50 [16] was > 100 µM (inactive), the GI50 [17] was > 100 µM (inactive) and the GI50 [18] was > 100 µM (inactive). For the same molecule, the GI50 [19] was > 100 µM (inactive), the GI50 [20] was > 100 µM (inactive) and the GI50 [21] was > 100 µM (inactive). The GI50 [22] was > 100 µM (inactive), the GI50 [23] was > 100 µM (inactive) and the GI50 [24] was > 100 µM (inactive). For the same molecule, the GI50 [25] was > 100 µM (inactive), the GI50 [26] was > 100 µM (inactive) and the GI50 [27] was > 100 µM (inactive). For the same molecule, the GI50 [28] was > 100 µM (inactive), the GI50 [29] was > 100 µM (inactive) and the GI50 [30] was > 100 µM (inactive). The GI50 [31] was > 100 µM (inactive), the GI50 [32] was > 100 µM (inactive) and the GI50 [33] was > 100 µM (inactive). The GI50 [34] was over 100 µM, the GI50 [35] was > 100 µM (inactive) and the GI50 [36] was > 100 µM (inactive). For the same molecule, the GI50 [37] was > 100 µM (inactive), the GI50 [38] was > 100 µM (inactive) and the GI50 [39] was > 100 µM (inactive). The GI50 [40] was > 100 µM (inactive), the GI50 [41] was > 100 µM (inactive) and the GI50 [42] was > 100 µM (inactive). The GI50 [43] was > 100 µM (inactive), the GI50 [44] was > 100 µM (inactive) and the GI50 [45] was > 100 µM (inactive). The GI50 [46] was > 100 µM (inactive), the GI50 [47] was > 100 µM (inactive) and the GI50 [48] was > 100 µM (inactive). The GI50 [49] was > 100 µM (inactive) and the GI50 [50] was > 100 µM (inactive).
With `C=C1C[C@@H]2O[C@H]3[C@H]4[C@@H](C[C@@H](C)[C@@H](OC(C)=O)[C@H]42)[C@@H](C)CO[C@@]3(C)[C@H](OC(=O)CCCCCCC)CC1=O` the GI50 [2] was 15.6 µM (inactive), the GI50 [3] was 16 µM (inactive) and the GI50 [4] was 18.7 µM (inactive). For the same molecule, the GI50 [5] was 20.6 µM (inactive), the GI50 [6] was > 10 µM (inactive) and the GI50 [7] was 20.8 µM (inactive). The GI50 [8] was 21.5 µM (inactive), the GI50 [9] was 14.4 µM (inactive) and the GI50 [10] was 17.9 µM (inactive). The GI50 [51] was 11.9 µM (inactive), the GI50 [11] was 18.5 µM (inactive) and the GI50 [12] was 5.85 µM (inactive). The GI50 [13] was 16 µM (inactive), the GI50 [14] was 17.1 µM (inactive) and the GI50 [15] was 2.64 µM (inactive). For the same molecule, the GI50 [16] was 12.1 µM (inactive), the GI50 [17] was 13.6 µM (inactive) and the GI50 [18] was 16.5 µM (inactive). For the same molecule, the GI50 [19] was 17.1 µM (inactive), the GI50 [52] was 12.1 µM (inactive) and the GI50 [20] was 18.1 µM (inactive). For the same molecule, the GI50 [21] was 15.7 µM (inactive), the GI50 [53] was 18.8 µM (inactive) and the GI50 [22] was 17.2 µM (inactive). The GI50 [23] was 15.6 µM (inactive), the GI50 [24] was 16.5 µM (inactive) and the GI50 [25] was 19.6 µM (inactive). For the same molecule, the GI50 [26] was 16.8 µM (inactive), the GI50 [28] was 16 µM (inactive) and the GI50 [29] was 20.9 µM (inactive). For the same molecule, the GI50 [30] was 16.5 µM (inactive), the GI50 [31] was 19.4 µM (inactive) and the GI50 [32] was 7.29 µM (inactive). The GI50 [33] was 9.82 µM (inactive), the GI50 [54] was 26.5 µM (inactive) and the GI50 [34] was 14.1 µM. The GI50 [35] was 13.9 µM (inactive), the GI50 [36] was 15.5 µM (inactive) and the GI50 [37] was 14.9 µM (inactive). The GI50 [38] was 17.6 µM (inactive), the GI50 [55] was 16.8 µM (inactive) and the GI50 [39] was 18.2 µM (inactive). The GI50 [41] was 15.2 µM (inactive), the GI50 [56] was 22 µM (inactive) and the GI50 [42] was 19.2 µM (inactive). The GI50 [43] was 21.2 µM (inactive), the GI50 [44] was 16 µM (inactive) and the GI50 [45] was 18.4 µM (inactive). For the same molecule, the GI50 [46] was 15 µM (inactive), the GI50 [47] was 15.4 µM (inactive) and the GI50 [48] was 15.1 µM (inactive). For the same molecule, the GI50 [49] was > 10 µM (inactive), the GI50 [57] was 19.5 µM (inactive) and the GI50 [58] was 17 µM (inactive).
